Values quoted from earlier work as cited in US20230048954A1, “COMPOSITIONS FOR REMOVING NECROTIC OR INFECTED TISSUES FROM BODY SURFACE LESIONS” (priority 2020, published 2023).

Conditions: at a temperature of 25° C.

Structure (SMILES)	pKa
CCCS(=O)(=O)O [1-Propanesulfonic acid]	−0.86
O=[N+]([O-])O [Nitric]	−1.4
